# Measurements published in PubChem BioAssay (NCI).
#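 In this assay, cells in 96-well plates receive the compound at five concentrations for 48 hours. Endpoints are linearly interpolated between the surrounding concentrations. TGI: concentration producing complete growth inhibition.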
# Test system: NCI-H226 lung
# Experiment: NCI tumour cell line growth inhibition, 48 h
row,Structure (SMILES),TGI [µM]
1,CC(=O)NC(CCCN(Cc1ccccc1)C(=O)N(C)N=O)C(=O)NCc1ccccc1 (stereo not drawn),> 100
2,O=C(/C=C/C1C(=O)NC(=O)NC1=O)CC(=O)C(=O)Nc1cc(Cl)c(Cl)cc1Cl,> 100
3,c1ccc(-c2nnc3nn4c(-c5ccccc5)cnnc4c3c2-c2ccccc2)cc1,> 100
4,CCOC(=O)C(C)N1C(=O)c2ccccc2S1(=O)=O (stereo not drawn),> 100
5,COc1cc(C(C#N)NNc2nc(C)cc(=O)[nH]2)cc(OC)c1OC (stereo not drawn),> 100
6,COC(=O)C(C(=O)C(N)=O)c1csc(-n2nc(-c3ccccc3)cc2-c2ccccc2)n1 (stereo not drawn),> 31.6

# Test system: UACC-62 melanoma
# Experiment: NCI tumour cell line growth inhibition, 48 h
row,Structure (SMILES),TGI [µM]
1,c1ccc(-c2ccnc3c2ccc2c(-c4ccccc4)ccnc23)cc1,2.25
2,CC(=O)NC(CCCN(Cc1ccccc1)C(=O)N(C)N=O)C(=O)NCc1ccccc1 (stereo not drawn),> 100
3,O=C(/C=C/C1C(=O)NC(=O)NC1=O)CC(=O)C(=O)Nc1cc(Cl)c(Cl)cc1Cl,> 100
4,c1ccc(-c2nnc3nn4c(-c5ccccc5)cnnc4c3c2-c2ccccc2)cc1,> 100
5,CCOC(=O)C(C)N1C(=O)c2ccccc2S1(=O)=O (stereo not drawn),> 100
6,COc1cc(C(C#N)NNc2nc(C)cc(=O)[nH]2)cc(OC)c1OC (stereo not drawn),> 100
7,COC(=O)C(C(=O)C(N)=O)c1csc(-n2nc(-c3ccccc3)cc2-c2ccccc2)n1 (stereo not drawn),> 31.6

# Test system: KM12 colon
# Experiment: NCI tumour cell line growth inhibition, 48 h
row,Structure (SMILES),TGI [µM]
1,c1ccc(-c2ccnc3c2ccc2c(-c4ccccc4)ccnc23)cc1,10.2
2,CC(=O)NC(CCCN(Cc1ccccc1)C(=O)N(C)N=O)C(=O)NCc1ccccc1 (stereo not drawn),> 100
3,O=C(/C=C/C1C(=O)NC(=O)NC1=O)CC(=O)C(=O)Nc1cc(Cl)c(Cl)cc1Cl,> 100
4,c1ccc(-c2nnc3nn4c(-c5ccccc5)cnnc4c3c2-c2ccccc2)cc1,> 100
5,CCOC(=O)C(C)N1C(=O)c2ccccc2S1(=O)=O (stereo not drawn),> 100
6,COc1cc(C(C#N)NNc2nc(C)cc(=O)[nH]2)cc(OC)c1OC (stereo not drawn),> 100
7,COC(=O)C(C(=O)C(N)=O)c1csc(-n2nc(-c3ccccc3)cc2-c2ccccc2)n1 (stereo not drawn),> 31.6

# Test system: UACC-257 melanoma
# Experiment: NCI tumour cell line growth inhibition, 48 h
row,Structure (SMILES),TGI [µM]
1,c1ccc(-c2ccnc3c2ccc2c(-c4ccccc4)ccnc23)cc1,5.5
2,CC(=O)NC(CCCN(Cc1ccccc1)C(=O)N(C)N=O)C(=O)NCc1ccccc1 (stereo not drawn),> 100
3,O=C(/C=C/C1C(=O)NC(=O)NC1=O)CC(=O)C(=O)Nc1cc(Cl)c(Cl)cc1Cl,> 100
4,c1ccc(-c2nnc3nn4c(-c5ccccc5)cnnc4c3c2-c2ccccc2)cc1,> 100
5,CCOC(=O)C(C)N1C(=O)c2ccccc2S1(=O)=O (stereo not drawn),> 100
6,COc1cc(C(C#N)NNc2nc(C)cc(=O)[nH]2)cc(OC)c1OC (stereo not drawn),> 100
7,COC(=O)C(C(=O)C(N)=O)c1csc(-n2nc(-c3ccccc3)cc2-c2ccccc2)n1 (stereo not drawn),> 31.6

# Test system: P388/ADR leukemia
# Experiment: NCI tumour cell line growth inhibition, 48 h
row,Structure (SMILES),TGI [µM]
1,CCOC(=O)C(C)N1C(=O)c2ccccc2S1(=O)=O (stereo not drawn),> 100

# Test system: HL-60(TB) leukemia
# Experiment: NCI tumour cell line growth inhibition, 48 h
row,Structure (SMILES),TGI [µM]
1,c1ccc(-c2ccnc3c2ccc2c(-c4ccccc4)ccnc23)cc1,3.69
2,O=C(/C=C/C1C(=O)NC(=O)NC1=O)CC(=O)C(=O)Nc1cc(Cl)c(Cl)cc1Cl,> 100
3,c1ccc(-c2nnc3nn4c(-c5ccccc5)cnnc4c3c2-c2ccccc2)cc1,> 100
4,CCOC(=O)C(C)N1C(=O)c2ccccc2S1(=O)=O (stereo not drawn),> 100
5,COc1cc(C(C#N)NNc2nc(C)cc(=O)[nH]2)cc(OC)c1OC (stereo not drawn),> 100
6,COC(=O)C(C(=O)C(N)=O)c1csc(-n2nc(-c3ccccc3)cc2-c2ccccc2)n1 (stereo not drawn),> 31.6

# Test system: SNB-19 CNS
# Experiment: NCI tumour cell line growth inhibition, 48 h
row,Structure (SMILES),TGI [µM]
1,c1ccc(-c2ccnc3c2ccc2c(-c4ccccc4)ccnc23)cc1,13.9
2,CC(=O)NC(CCCN(Cc1ccccc1)C(=O)N(C)N=O)C(=O)NCc1ccccc1 (stereo not drawn),> 100
3,O=C(/C=C/C1C(=O)NC(=O)NC1=O)CC(=O)C(=O)Nc1cc(Cl)c(Cl)cc1Cl,> 100
4,c1ccc(-c2nnc3nn4c(-c5ccccc5)cnnc4c3c2-c2ccccc2)cc1,61.2
5,CCOC(=O)C(C)N1C(=O)c2ccccc2S1(=O)=O (stereo not drawn),> 100
6,COC(=O)C(C(=O)C(N)=O)c1csc(-n2nc(-c3ccccc3)cc2-c2ccccc2)n1 (stereo not drawn),17.2

# Test system: COLO 205 colon
# Experiment: NCI tumour cell line growth inhibition, 48 h
row,Structure (SMILES),TGI [µM]
1,c1ccc(-c2ccnc3c2ccc2c(-c4ccccc4)ccnc23)cc1,6.71
2,CC(=O)NC(CCCN(Cc1ccccc1)C(=O)N(C)N=O)C(=O)NCc1ccccc1 (stereo not drawn),> 100
3,O=C(/C=C/C1C(=O)NC(=O)NC1=O)CC(=O)C(=O)Nc1cc(Cl)c(Cl)cc1Cl,> 100
4,CCOC(=O)C(C)N1C(=O)c2ccccc2S1(=O)=O (stereo not drawn),> 100
5,COc1cc(C(C#N)NNc2nc(C)cc(=O)[nH]2)cc(OC)c1OC (stereo not drawn),> 100
6,COC(=O)C(C(=O)C(N)=O)c1csc(-n2nc(-c3ccccc3)cc2-c2ccccc2)n1 (stereo not drawn),> 31.6

# Test system: TK-10 renal
# Experiment: NCI tumour cell line growth inhibition, 48 h
row,Structure (SMILES),TGI [µM]
1,c1ccc(-c2ccnc3c2ccc2c(-c4ccccc4)ccnc23)cc1,0.994
2,CC(=O)NC(CCCN(Cc1ccccc1)C(=O)N(C)N=O)C(=O)NCc1ccccc1 (stereo not drawn),> 100
